Assay results reported in US20240116918A1, “SUBSTITUTED TRICYCLIC COMPOUND AS PRMT5 INHIBITOR AND USE THEREOF” (NANJING SANHOME PHARMACEUTICAL CO., LTD., priority 2019, published 2024).
pIC50: −log10 of the molar value.

Molecular target: PRMT5 (Homo sapiens (Human), UniProt O14744)
Test: In vitro evaluation of kinase activity (PRMT5 enzymatic assay, [3H]-SAM FlashPlate)
Type: biochemical
Settings: polypeptide substrate H4(1-21)S1ac 100 nM, [3H]-SAM 250 nM, 25° C., 60 min; read-out: Enzyme IC50 PRMT5
Description: Compounds: the compounds of the present invention prepared in the above examples. Each compound was formulated into a 10 mM stock solution with DMSO, and finally diluted into 10 concentrations for detection, with the final concentrations being 10000.00 nM, 3333.33 nM, 1111.11 nM, 370.37 nM, 123.46 nM, 41.15 nM, 13.72 nM, 4.57 nM, 1.52 nM, and 0.51 nM.
Reagents and consumables: PRMTS, purchased from Active Motif, Cat. No. 31921; polypeptide substrate H4(1-21)S1ac, purchased from Gill Biochemical (Shanghai) Co., Ltd., Cat. No. 342095; [^3H]-SAM, purchased From PerkinElmer, Cat. No. NET155V001MC; SAM, purchased from Sigma, Cat. No. A7007-100MG; SAH, purchased from Sigma, Cat. No. A9384-25MG; DTT, purchased from Sangon Bioengineering (Shanghai) Co., Ltd., Cat. No. A620058-0005. Corning-3657, purchased from Corning, Cat. No. 3657; Echo Qualified 384-Well, purchased from Labcyte, Cat. No. P-05525; FlashPlate, purchased from Perkin Elmer, Cat. No. SMP410J001PK.
2.1. Preparation of reaction buffer and reaction stop solution: the composition of 1× reaction buffer was 10 mM Tris-HCl, pH 8.0; 0.01% Tween-20; and 1 mM DTT. The composition of the reaction stop solution was 125 μM […] solution.
The compounds were dissolved in 100% DMSO to prepare 10 mM stock solutions and then diluted to desired concentrations on an Echo 384 well plate.
250 nL of the compounds diluted above were transferred from the Echo 384 well plate to a 384 well reaction plate using the Echo550 instrument.
PRMT5 was added to 1× reaction buffer to form 1.67× enzyme solution.
The polypeptide substrate and [^3H]-SAM were added to 1× reaction buffer to form 2.5× substrate solution (the final concentrations were 100 nM and 250 nM, respectively).
15 μL of 1.67× enzyme solution was added to the wells of a 384 well reaction plate. For control wells without enzymatic activity, the enzyme solution was replaced with 15 μL of 1× reaction buffer. The plate was centrifuged at 1000 rpm for 1 min and incubated at room temperature for 15 min. […]

Chain of PRMT5 (O14744 whole entry): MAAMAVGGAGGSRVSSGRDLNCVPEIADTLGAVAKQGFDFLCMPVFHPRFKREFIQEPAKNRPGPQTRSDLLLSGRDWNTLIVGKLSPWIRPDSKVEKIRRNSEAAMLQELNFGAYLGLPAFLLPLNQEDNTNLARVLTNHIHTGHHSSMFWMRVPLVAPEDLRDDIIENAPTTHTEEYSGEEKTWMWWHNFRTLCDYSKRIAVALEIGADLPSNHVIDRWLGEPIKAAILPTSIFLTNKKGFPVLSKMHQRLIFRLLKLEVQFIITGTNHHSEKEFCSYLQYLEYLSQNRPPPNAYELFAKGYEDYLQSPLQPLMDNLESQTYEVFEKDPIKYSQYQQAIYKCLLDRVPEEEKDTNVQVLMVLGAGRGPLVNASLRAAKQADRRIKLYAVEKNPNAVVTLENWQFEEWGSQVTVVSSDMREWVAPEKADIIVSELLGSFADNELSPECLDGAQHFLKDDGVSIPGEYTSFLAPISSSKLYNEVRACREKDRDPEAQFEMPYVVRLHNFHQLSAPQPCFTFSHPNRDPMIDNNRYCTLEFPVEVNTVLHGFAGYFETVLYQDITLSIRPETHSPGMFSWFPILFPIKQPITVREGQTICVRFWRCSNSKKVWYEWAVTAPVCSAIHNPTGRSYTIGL
Chain of PRMT5 (Q9BQA1 whole entry partner): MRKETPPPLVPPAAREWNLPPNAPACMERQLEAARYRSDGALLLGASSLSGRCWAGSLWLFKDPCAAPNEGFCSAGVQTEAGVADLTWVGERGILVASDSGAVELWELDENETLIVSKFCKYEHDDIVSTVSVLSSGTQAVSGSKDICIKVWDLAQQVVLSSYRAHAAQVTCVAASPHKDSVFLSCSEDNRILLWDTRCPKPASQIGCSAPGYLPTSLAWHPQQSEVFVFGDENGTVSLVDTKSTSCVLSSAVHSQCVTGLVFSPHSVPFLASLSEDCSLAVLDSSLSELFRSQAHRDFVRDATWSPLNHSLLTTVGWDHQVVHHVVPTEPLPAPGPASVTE

pIC50: 5.58
SMILES: CC(=O)N1CC2(CC(Nc3ccc4c(c3)C(=O)N(C[C@H](O)CN3CCc5ccccc5C3)CC43CC3)C2)C1 [Example 10, (R)-7′-((2-Acetyl-2-azaspiro[3.3]hept-6-yl)amino)-2′-(3-(3,4-dihydroisoquinolin-2(1H)-yl)-2-hydroxypropyl)-2′,3′-dihydro-1′H-spiro[cyclopropane-1,4′-isoquinolin]-1′-one]
